# Measured values taken from patent US20220117920A1, “N-Aryl Benzenesulfonamides as Protonophores for the Treatment of Cancers, Metabolic Diseases and Traumatic Brain Injury” (University of Kentucky Research Foundation, priority 2019, published 2022).
# Legend:
# Huh7 cells = test: Seahorse mitochondrial stress test (OCR) in Huh7 cells; format: cell-based, human; settings: Huh7, 24 h
# Description: Oxygen Consumption Rates (OCR) were measured on an XF-96 Extracellular Flux Analyzer (Seahorse Bioscience) using the protocol and conditions optimized for HCC cells as previously described by our group. Briefly, the experiments were performed by seeding 10,000 and 20,000 Huh7 cells per well in XFe 96 well-plates 36 h before the experiment. Cells were treated for 24 h with FH535, FH535-N or vehicle control. In OCR experiments the media was supplemented with 25 mM Glucose and 1 mM Pyruvate just before the assay. After minimal incubation time (˜20-30 min in non-CO2 37° C. incubator) mitochondrial stress test was initiated. […] All reagents used in the Seahorse experiments were purchased from Sigma-Aldrich. Analyses of data were performed with Wave 2.2 software (Seahorse Bioscience), Excel (Microsoft Office 2013) and Prism 7.0 (GraphPad Software).
# Wnt/β-catenin pathway = test: TOP-Flash TCF4-dependent dual luciferase reporter assay in Huh7 cells; format: cell-based, human; settings: Huh7, 10 mM LiCl
# Description: Cells were plated at 1×10^5 cells/well in 24-well plates and transiently transfected with 490 ng of luciferase-reporter plasmid and 10 ng of phRL-TK per well using the Turbofect transfection reagent (Thermo Scientific, USA). After 5-6 h post-transfection, cells were treated with drug(s) or DMSO vehicle control for 36 h in the presence or absence of LiCl (10 mM). Luciferase assays were performed using the Dual Luciferase Assay System (Promega, USA) according to manufacturer's instructions.
# Wnt signaling = test: Wnt reporter assay, stable HEK293T cell line containing TOPFlash reporter, LiCl-activated; format: cell-based, human; settings: 3 μM
# Text: To identify novel Wnt regulators by high throughput screening, a stable HEK293T cell line containing the TOPFlash reporter was established. To identify Wnt inhibitors that targeted molecular events downstream of β-catenin, we treated these cells with lithium chloride to inhibit GSK3 and to stabilize β-catenin. […] We also validated the results by transient transfection of Super 8× TOPFlash or 8× FOPFlash into HEK293T cells. […] Since the results from the stable and transient transfection are compatible, we used stable cell lines for all of the other experiments.
# Reporter assay. Wnt reporter assay and cell staining assay have been described previously. We subcloned Super 8×TOPFlash (provided by Professor Randall Moon, University of Washington) into the pGL4.83 [hRlucP/Puro] Vector and transfected it into HEK293T cells. A stable HEK293T cell line containing the TOPFlash reporter was established using puromycin selection. To screen Wnt inhibitors that block the downstream signaling transduction pathway of β-catenin, we treated the reporter cells with 25 mM LiCl to stabilize β-catenin and activate Wnt signaling. The potential Wnt inhibitors identified from screening were validated by transfecting TOPFlash or FOPFlash plus control renilla reporters into HEK293T cells, and then treating the cells with DMSO or testing compounds in DMSO solution. The Wnt signaling was activated by LiCl or Wnt3A treatment.
# Huh7 tumor xenograft = Huh7 tumor xenograft model in athymic nude mice; format: in vivo
# Description: All animal experiments were performed in accord with the guidelines, rules and recommendations and was approved by the University of Kentucky Institutional Animal Care and Use Committee after approval (IACUC). Three- to four-weeks old female athymic nude mice (nu/nu, The Jackson Laboratory, USA) were housed in a pathogen-free environment at the Division of Laboratory Animal Resources of the Chandler Medical Center, University of Kentucky. To generate in vivo tumors, Huh7 culture cells in mid-log phase growth were collected and re-suspended in a 50% mixture of Matrigel (BD Biosciences, USA) in serum-free medium to a final concentration of 6×10^7 cells per mL. A volume of 0.1 mL of the cell suspension was injected subcutaneously in the right flank of each mouse. Mice were weighed and checked for tumor growth every other day. When tumors reached a volume of 100 mm^3, mice were randomly divided into two groups of 5: vehicle control group and FH535 group (receiving 15 mg of FH535/kg/day from a stock prepared in dimethyl sulfoxide (DMSO) at 21.7 mg/mL and diluted in serum-free medium to a final concentration of 40% DMSO). Vehicle and FH535 were administered by intraperitoneal injection every other day. Tumors were measured using an optical caliper and tumor size was calculated using the formula: 0.5×length×(width)^2. Mice were euthanized at the end of the experiment or when reaching humane end-point following AVMA guidelines. Humane end-points included animals with tumors exceeding 20 mm in maximum diameter, with ulcerated tumors, more than 20% body weight loss, impaired mobility, labored breathing or with a body condition score below 2.
# Tumors from the xenograft model were formaldehyde fixed and paraffin-embedded and were used to performed H&E staining and immunohistochemistry of Ki-67 according to standard procedures.
smiles,measurement,setting,value
"Cc1cc([N+](=O)[O-])ccc1NS(=O)(=O)c1cc(Cl)ccc1Cl [FH535, 2,5-dichloro-N-(2-methyl-4-nitrophenyl)benzenesulfonamide]",Proton Leak,Huh7 cells,enhanced Proton Leak
same,Wnt/β-catenin transcriptional activity (TOP-Flash),Wnt/β-catenin pathway,target the Wnt/β-catenin signaling pathway
same,inhibition of Wnt signaling,Wnt signaling,inhibited Wnt signaling
same,reduction of tumor weight compared to vehicle,"Huh7 tumor xenograft; 15 mg/Kg i.p. every other day, 10 day treatment",42±8%
same,tumor volume compared to control group,"Huh7 tumor xenograft; 15 mg/kg every other day, after four days of treatment, p<0.05",significantly reduced
same,proliferation index (Ki-67),"Huh7 tumor xenograft; excised tumors, same in control group",greater than 95%
